EC50 data for 26 compounds are collected here from US20250120961A1, “P53 MODULATORS” (Nested Therapeutics, Inc., priority 2023, published 2025).

Bounds are passed on as bounds.

The target in the test is His-tagged p53-Y220C DNA binding domain (Homo sapiens, UniProt P04637, Y220C). Nature of the test: Biochemical p53-Y220C and DNA binding assay (HTRF). The note with it: inflection point of 10 points dose titration, 4 parameter curve fit; p53-Y220C DBD 100 nM, biotinylated dsDNA 200 nM, 27 to 29° C.; read-out: HTRF IP. In short, it runs like this: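 DBD (aa 94-312, 100 nM) mixed with compound and biotinylated consensus dsDNA (200 nM) in DPBS/20 mM NaCl/0.5% BSA, overnight at 4 °C, then 60 min at 27-29 °C; anti-His Tb/streptavidin-d2 HTRF read. Activation normalized to reference compound (500%) and DMSO (0%); 10-point curve, inflection point reported.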
Consider `CN1CC[C@@H](Nc2cccc3c(CC(F)(F)F)c(/C=N/OCC(C)(C)O)sc23)[C@@H](F)C1` [Example 1-39, (E)-7-(((3S,4R)-3-fluoro-1-methylpiperidin-4-yl)amino)-3-(2,2,2-trifluoroethyl)benzo[b]thiophene-2-carbaldehyde O-(2-hydroxy-2-methylpropyl) oxime], for which the EC50 was less than 100 nM.

As to `CN1C[C@H](F)[C@H](Nc2cccc3c(CC(F)(F)F)c(/C=N/OCC(C)(C)O)sc23)C1` [Example 2-21, (E)-7-(((3R,4S)-4-fluoro-1-methylpyrrolidin-3-yl)amino)-3-(2,2,2-trifluoroethyl)benzo[b]thiophene-2-carbaldehyde O-(2-hydroxy-2-methylpropyl) oxime], the EC50 lay within 100 to 1000 nM.

`CC(C)N1C[C@H](F)[C@H](Nc2cccc3c(CC(F)(F)F)c(/C=N/OCC(C)(C)O)sc23)C1` [Example 2-22, (E)-7-(((3R,4S)-4-fluoro-1-isopropylpyrrolidin-3-yl)amino)-3-(2,2,2-trifluoroethyl)benzo[b]thiophene-2-carbaldehyde O-(2-hydroxy-2-methylpropyl) oxime]: the EC50 is less than 100 nM.

For `OC(CO/N=C/c1sc2c(N[C@@H]3CCNC[C@@H]3F)cccc2c1CC(F)(F)F)c1ccccc1` (stereo partly drawn) [Example 2-12, (E)-7-(((3S,4R)-3-fluoropiperidin-4-yl)amino)-3-(2,2,2-trifluoroethyl)benzo[b]thiophene-2-carbaldehyde O-(2-hydroxy-2-phenylethyl) oxime], the EC50 fell in the range of 100 to 1000 nM.

Take `OC1(CO/N=C/c2sc3c(N[C@@H]4CNC[C@@H]4F)cccc3c2CC(F)(F)F)CCCCC1` [Example 1-29, (E)-7-(((3R,4S)-4-fluoropyrrolidin-3-yl)amino)-3-(2,2,2-trifluoroethyl)benzo[b]thiophene-2-carbaldehyde O-((1-hydroxycyclohexyl)methyl) oxime]: the EC50 is more than 1000 nM.

Regarding `CN1CC[C@@H](Nc2cccc3c(CC(F)(F)F)c(/C=N/OCc4nc5ccccc5[nH]4)sc23)[C@@H](F)C1` [Example 2-15, (E)-7-(((3S,4R)-3-fluoro-1-methylpiperidin-4-yl)amino)-3-(2,2,2-trifluoroethyl)benzo[b]thiophene-2-carbaldehyde O-((1H-benzo[d]imidazol-2-yl)methyl) oxime], the EC50 lay in the range of 100 to 1000 nM.

On to `O=C1NCC(CO/N=C/c2sc3c(N[C@@H]4CNC[C@@H]4F)cccc3c2CC(F)(F)F)O1` (stereo partly drawn) [Example 2-23, (E)-7-(((3R,4S)-4-fluoropyrrolidin-3-yl)amino)-3-(2,2,2-trifluoroethyl)benzo[b]thiophene-2-carbaldehyde O-((2-oxooxazolidin-5-yl)methyl) oxime], for which the EC50 was 100 to 1000 nM.

As for `CC(CO)(O/N=C/c1sc2c(N[C@@H]3CNC[C@@H]3F)cccc2c1CC(F)(F)F)c1ccccc1` (stereo partly drawn) [Example 1-23, (E)-7-(((3R,4S)-4-fluoropyrrolidin-3-yl)amino)-3-(2,2,2-trifluoroethyl)benzo[b]thiophene-2-carbaldehyde O-(1-hydroxy-2-phenylpropan-2-yl) oxime], the EC50 was more than 1000 nM.

For `NCC(O)CO/N=C/c1sc2c(N[C@@H]3CNC[C@@H]3F)cccc2c1CC(F)(F)F` (stereo partly drawn) [Example 1-8, (E)-7-(((3R,4S)-4-fluoropyrrolidin-3-yl)amino)-3-(2,2,2-trifluoroethyl)benzo[b]thiophene-2-carbaldehyde O-(3-amino-2-hydroxypropyl)oxime], the EC50 lay within 100 to 1000 nM.

Consider `Cc1cc(CO/N=C/c2sc3c(N[C@@H]4CNC[C@@H]4F)cccc3c2CC(F)(F)F)no1` [Example 3-7, (E)-7-(((3R,4S)-4-fluoropyrrolidin-3-yl)amino)-3-(2,2,2-trifluoroethyl)benzo[b]thiophene-2-carbaldehyde O-((5-methylisoxazol-3-yl)methyl) oxime], for which the EC50 lay within 100 to 1000 nM.

On to `OC1CNCCC1O/N=C/c1sc2c(N[C@@H]3CNC[C@@H]3F)cccc2c1CC(F)(F)F` (stereo partly drawn) [Example 1-33, (E)-7-(((3R,4S)-4-fluoropyrrolidin-3-yl)amino)-3-(2,2,2-trifluoroethyl)benzo[b]thiophene-2-carbaldehyde O-(3-hydroxypiperidin-4-yl) oxime], for which the EC50 is more than 1000 nM.

Turning to `OCC1(O/N=C/c2sc3c(N[C@@H]4CNC[C@@H]4F)cccc3c2CC(F)(F)F)CCNC1` (stereo partly drawn) [Example 1-13, (E)-7-(((3R,4S)-4-fluoropyrrolidin-3-yl)amino)-3-(2,2,2-trifluoroethyl)benzo[b]thiophene-2-carbaldehyde O-(3-(hydroxymethyl)pyrrolidin-3-yl) oxime], the EC50 is more than 1000 nM.

For `OC1(CO/N=C/c2sc3c(N[C@@H]4CNC[C@@H]4F)cccc3c2CC(F)(F)F)CCCNC1` (stereo partly drawn) [Example 1-32, (E)-7-(((3R,4S)-4-fluoropyrrolidin-3-yl)amino)-3-(2,2,2-trifluoroethyl)benzo[b]thiophene-2-carbaldehyde O-((3-hydroxypiperidin-3-yl)methyl) oxime], the EC50 is more than 1000 nM.

For `CNC(=O)c1ccc(CO/N=C/c2sc3c(N[C@@H]4CCN(C)C[C@@H]4F)cccc3c2SC(F)(F)F)c(NC)c1` [Example 2-33, 4-(((((E)-(7-(((3S,4R)-3-fluoro-1-methylpiperidin-4-yl)amino)-3-((trifluoromethyl)thio)benzo[b]thiophen-2-yl)methylene)amino)oxy)methyl)-N-methyl-3-(methylamino)benzamide], the EC50 is less than 100 nM.

In the case of `CC(O)(CO/N=C\c1sc2c(N[C@@H]3CNC[C@@H]3F)cccc2c1CC(F)(F)F)c1ccccc1` (stereo partly drawn) [Example 1-22, (Z)-7-(((3R,4S)-4-fluoropyrrolidin-3-yl)amino)-3-(2,2,2-trifluoroethyl)benzo[b]thiophene-2-carbaldehyde O-(2-hydroxy-2-phenylpropyl) oxime], the EC50 was in the range of 100 to 1000 nM.

`OC1(CO/N=C/c2sc3c(N[C@@H]4CNC[C@@H]4F)cccc3c2CC(F)(F)F)CCOC1` (stereo partly drawn) [Example 1-40, (E)-7-(((3R,4S)-4-fluoropyrrolidin-3-yl)amino)-3-(2,2,2-trifluoroethyl)benzo[b]thiophene-2-carbaldehyde O-((3-hydroxytetrahydrofuran-3-yl)methyl) oxime]: the EC50 is 100 to 1000 nM.

For the compound `OCC1(O/N=C/c2sc3c(N[C@@H]4CNC[C@@H]4F)cccc3c2CC(F)(F)F)CCOCC1` [Example 1-21, (E)-7-(((3R,4S)-4-fluoropyrrolidin-3-yl)amino)-3-(2,2,2-trifluoroethyl)benzo[b]thiophene-2-carbaldehyde O-(4-(hydroxymethyl)tetrahydro-2H-pyran-4-yl) oxime], the EC50 was more than 1000 nM.

As for `OC1COCC1O/N=C/c1sc2c(N[C@@H]3CNC[C@@H]3F)cccc2c1CC(F)(F)F` (stereo partly drawn) [Example 1-37, (E)-7-(((3R,4S)-4-fluoropyrrolidin-3-yl)amino)-3-(2,2,2-trifluoroethyl)benzo[b]thiophene-2-carbaldehyde O-(4-hydroxytetrahydrofuran-3-yl) oxime], the EC50 was less than 100 nM.

Take `O=C(OCc1ccccc1)N1CCC(CO)(O/N=C/c2sc3c(N[C@@H]4CNC[C@@H]4F)cccc3c2CC(F)(F)F)CC1` [Example 1-26, benzyl 4-((((E)-(7-(((3R,4S)-4-fluoropyrrolidin-3-yl)amino)-3-(2,2,2-trifluoroethyl)benzo[b]thiophen-2-yl)methylene)amino)oxy)-4-(hydroxymethyl)piperidine-1-carboxylate]: the EC50 is more than 1000 nM.

In the case of `CC(O)CO/N=C/c1sc2c(N[C@@H]3CCNC[C@@H]3F)cccc2c1CC(F)(F)F` (stereo partly drawn) [Example 2-13, (E)-7-(((3S,4R)-3-fluoropiperidin-4-yl)amino)-3-(2,2,2-trifluoroethyl)benzo[b]thiophene-2-carbaldehyde O-(2-hydroxypropyl) oxime], the EC50 fell in the range of 100 to 1000 nM.

As to `OC1(CO/N=C/c2sc3c(N[C@@H]4CNC[C@@H]4F)cccc3c2CC(F)(F)F)CCCOC1` (stereo partly drawn) [Example 1-15, (E)-7-(((3R,4S)-4-fluoropyrrolidin-3-yl)amino)-3-(2,2,2-trifluoroethyl)benzo[b]thiophene-2-carbaldehyde O-((3-hydroxytetrahydro-2H-pyran-3-yl)methyl) oxime], the EC50 was in the range of 100 to 1000 nM.

For the compound `OCC(Cn1cccn1)O/N=C/c1sc2c(N[C@@H]3CNC[C@@H]3F)cccc2c1CC(F)(F)F` (stereo partly drawn) [Example 1-28, (E)-7-(((3R,4S)-4-fluoropyrrolidin-3-yl)amino)-3-(2,2,2-trifluoroethyl)benzo[b]thiophene-2-carbaldehyde O-(1-hydroxy-3-(1H-pyrazol-1-yl)propan-2-yl) oxime], the EC50 is more than 1000 nM.

Consider `CNC(=O)c1ccc(CO/N=C/c2oc3c(N[C@@H]4CCN(C)C[C@@H]4F)cccc3c2SC(F)(F)F)c(NC)c1` [Example 2-34, 4-(((((E)-(7-(((3S,4R)-3-fluoro-1-methylpiperidin-4-yl)amino)-3-((trifluoromethyl)thio)benzofuran-2-yl)methylene)amino)oxy)methyl)-N-methyl-3-(methylamino)benzamide], for which the EC50 was more than 1000 nM.

On to `F[C@H]1CNC[C@H]1Nc1cccc2c(CC(F)(F)F)c(/C=N/OCc3nc4ccccc4s3)sc12` [Example 3-5, (E)-7-(((3R,4S)-4-fluoropyrrolidin-3-yl)amino)-3-(2,2,2-trifluoroethyl)benzo[b]thiophene-2-carbaldehyde O-(benzo[d]thiazol-2-ylmethyl) oxime], for which the EC50 fell in the range of 100 to 1000 nM.

For `CC[C@H](O)CO/N=C/c1sc2c(N[C@@H]3CNC[C@@H]3F)cccc2c1CC(F)(F)F` [Example 1-3, (E)-7-(((3R,4S)-4-fluoropyrrolidin-3-yl)amino)-3-(2,2,2-trifluoroethyl)benzo[b]thiophene-2-carbaldehyde O-((S)-2-hydroxybutyl) oxime], the EC50 fell in the range of 100 to 1000 nM.

For `CC(=O)N1CCC(=Cc2sc3c(N[C@@H]4CCNC[C@@H]4F)cccc3c2CC(F)(F)F)CC1` [Example 4-2, 1-(4-((7-(((3S,4R)-3-fluoropiperidin-4-yl)amino)-3-(2,2,2-trifluoroethyl)benzo[b]thiophen-2-yl)methylene)piperidin-1-yl)ethan-1-one], the EC50 was more than 1000 nM.
